How the values were obtained:
Assay in all cases: radiometric kinase profiling (33 PanQinase)
Format in all cases: biochemical
ACVR1B = target: T1, ACVR1B (Homo sapiens, UniProt P36896); settings: read-out: Inhibitory effect (%) ACVR1B
T1 construct: purchased Proqinase, Germany
T1 sequence (P36896 24-505): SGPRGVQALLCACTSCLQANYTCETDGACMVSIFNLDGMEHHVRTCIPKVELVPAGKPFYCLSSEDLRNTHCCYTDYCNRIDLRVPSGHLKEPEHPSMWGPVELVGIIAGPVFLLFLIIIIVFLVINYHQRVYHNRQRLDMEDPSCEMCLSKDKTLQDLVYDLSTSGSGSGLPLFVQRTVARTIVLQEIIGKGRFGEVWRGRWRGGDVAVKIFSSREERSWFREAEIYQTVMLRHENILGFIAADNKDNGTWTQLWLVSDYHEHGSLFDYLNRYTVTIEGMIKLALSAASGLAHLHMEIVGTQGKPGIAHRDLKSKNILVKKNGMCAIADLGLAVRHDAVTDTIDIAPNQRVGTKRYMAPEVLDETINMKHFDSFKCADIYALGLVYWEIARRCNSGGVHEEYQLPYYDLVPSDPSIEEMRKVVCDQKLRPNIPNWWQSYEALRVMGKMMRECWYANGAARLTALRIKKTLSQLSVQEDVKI
Description: (§1) The kinase inhibition profile of the compounds was determined by testing 96 protein kinases’ activity using a radiometric protein kinase assay (33 PanQinase® Activity Assay, Proqinase, Germany). In brief, 10 µL of non-radioactive ATP solution (in H2O), 25 µL of assay buffer/[γ-33 P]-ATP mixture, 5 µL of 0.1 μM the tested compound in 10% DMSO and 10 µL of enzyme/substrate were mixed in 96-well FlashPlatesTM (Perkin Elmer, Boston, MA, USA). The reaction was conducted at 30 °C for 60 min. To stop the reaction, 50 µL of 2% (v/v) H3PO4 was added into the protein kinase reaction cocktails. After which, with 200 µL 0.9% (w/v) NaCl twice, the incorporation of ^33 Pi (counting of “cpm”) was determined with a microplate scintillation counter (Wallac Microbeta, Boston, MA, USA). All protein kinase assays were performed using a BeckmanCoulter Biomek 2000/SL robotic system (Brea, CA, USA). The residual activity (in %) for each compound was normalized to 100% enzyme activity (untreated control) and background (negative control).

CAMKK1 = target: T2, CAMKK1 (Homo sapiens, UniProt Q8N5S9); settings: read-out: Inhibitory effect (%) CAMKK1
T2 construct: purchased Proqinase, Germany
Description: as §1

DDR2 = target: T3, DDR2 (Homo sapiens, UniProt Q16832); settings: read-out: Inhibitory effect (%) DDR2
T3 construct: purchased Proqinase, Germany
T3 sequence (Q16832 22-855): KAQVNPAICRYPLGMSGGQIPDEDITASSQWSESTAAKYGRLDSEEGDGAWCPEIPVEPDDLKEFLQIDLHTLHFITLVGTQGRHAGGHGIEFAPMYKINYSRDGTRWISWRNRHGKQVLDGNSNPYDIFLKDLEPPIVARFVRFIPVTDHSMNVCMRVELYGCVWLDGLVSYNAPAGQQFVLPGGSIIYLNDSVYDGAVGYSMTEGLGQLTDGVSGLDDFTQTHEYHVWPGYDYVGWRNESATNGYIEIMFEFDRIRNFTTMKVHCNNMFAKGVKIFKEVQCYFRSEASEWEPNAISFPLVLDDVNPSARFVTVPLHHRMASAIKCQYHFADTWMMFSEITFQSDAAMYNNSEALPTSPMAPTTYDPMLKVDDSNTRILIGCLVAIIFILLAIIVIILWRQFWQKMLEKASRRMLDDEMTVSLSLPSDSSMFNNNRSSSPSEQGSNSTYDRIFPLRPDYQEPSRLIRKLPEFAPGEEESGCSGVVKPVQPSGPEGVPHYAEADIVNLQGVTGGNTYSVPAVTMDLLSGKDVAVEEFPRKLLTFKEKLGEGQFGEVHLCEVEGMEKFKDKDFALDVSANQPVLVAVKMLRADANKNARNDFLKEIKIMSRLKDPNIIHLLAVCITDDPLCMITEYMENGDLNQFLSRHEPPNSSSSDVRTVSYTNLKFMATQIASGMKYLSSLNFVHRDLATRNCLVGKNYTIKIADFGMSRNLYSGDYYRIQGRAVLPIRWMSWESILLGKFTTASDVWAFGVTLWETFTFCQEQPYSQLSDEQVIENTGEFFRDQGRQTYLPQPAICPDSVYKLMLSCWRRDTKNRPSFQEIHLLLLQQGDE
Description: as §1

JAK2 = target: T4, JAK2 (Homo sapiens, UniProt O60674); settings: read-out: Inhibitory effect (%) JAK2
T4 construct: purchased ProQinase (33PanQinase Activity Assay)
Description: as §1

MAP3K8 = target: T5, MAP3K8 (Homo sapiens, UniProt P41279); settings: read-out: Inhibitory effect (%) MAP3K8
T5 construct: purchased ProQinase (33PanQinase Activity Assay)
Description: as §1

NUAK1 = target: T6, NUAK1 (Homo sapiens, UniProt O60285); settings: read-out: Inhibitory effect (%) NUAK1
T6 construct: purchased ProQinase (33PanQinase Activity Assay)
T6 sequence (O60285 1-661): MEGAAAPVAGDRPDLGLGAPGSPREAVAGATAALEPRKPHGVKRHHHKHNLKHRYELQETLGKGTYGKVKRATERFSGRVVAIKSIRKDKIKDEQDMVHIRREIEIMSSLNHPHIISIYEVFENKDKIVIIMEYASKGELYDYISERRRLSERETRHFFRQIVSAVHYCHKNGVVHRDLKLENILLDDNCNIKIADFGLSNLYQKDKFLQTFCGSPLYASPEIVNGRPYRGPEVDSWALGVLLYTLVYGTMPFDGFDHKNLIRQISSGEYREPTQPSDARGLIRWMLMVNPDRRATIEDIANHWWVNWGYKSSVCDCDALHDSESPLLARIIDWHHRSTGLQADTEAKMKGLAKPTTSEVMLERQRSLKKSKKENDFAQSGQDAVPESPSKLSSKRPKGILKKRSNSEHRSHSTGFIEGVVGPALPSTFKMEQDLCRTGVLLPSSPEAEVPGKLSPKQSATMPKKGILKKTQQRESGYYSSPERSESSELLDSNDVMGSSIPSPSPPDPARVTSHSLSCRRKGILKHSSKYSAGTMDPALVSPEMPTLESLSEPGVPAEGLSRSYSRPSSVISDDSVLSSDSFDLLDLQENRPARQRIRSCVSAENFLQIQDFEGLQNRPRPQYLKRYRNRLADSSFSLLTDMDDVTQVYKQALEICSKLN
Description: as §1

PRKCB1_II = target: T7, PRKCB1_II (Homo sapiens, UniProt P05771); settings: read-out: Inhibitory effect (%) PRKCB1_II
T7 construct: purchased ProQinase (33PanQinase Activity Assay)
Description: as §1

RET = target: T8, RET (Homo sapiens, UniProt P07949); settings: read-out: Inhibitory effect (%) RET
T8 construct: purchased ProQinase (33PanQinase Activity Assay)
Description: as §1

RPS6KA1 = target: T9, RPS6KA1 (Homo sapiens, UniProt Q15418); settings: read-out: Inhibitory effect (%) RPS6KA1
T9 construct: purchased ProQinase (33PanQinase Activity Assay)
Description: as §1

T8 sequence (P07949 29-1114): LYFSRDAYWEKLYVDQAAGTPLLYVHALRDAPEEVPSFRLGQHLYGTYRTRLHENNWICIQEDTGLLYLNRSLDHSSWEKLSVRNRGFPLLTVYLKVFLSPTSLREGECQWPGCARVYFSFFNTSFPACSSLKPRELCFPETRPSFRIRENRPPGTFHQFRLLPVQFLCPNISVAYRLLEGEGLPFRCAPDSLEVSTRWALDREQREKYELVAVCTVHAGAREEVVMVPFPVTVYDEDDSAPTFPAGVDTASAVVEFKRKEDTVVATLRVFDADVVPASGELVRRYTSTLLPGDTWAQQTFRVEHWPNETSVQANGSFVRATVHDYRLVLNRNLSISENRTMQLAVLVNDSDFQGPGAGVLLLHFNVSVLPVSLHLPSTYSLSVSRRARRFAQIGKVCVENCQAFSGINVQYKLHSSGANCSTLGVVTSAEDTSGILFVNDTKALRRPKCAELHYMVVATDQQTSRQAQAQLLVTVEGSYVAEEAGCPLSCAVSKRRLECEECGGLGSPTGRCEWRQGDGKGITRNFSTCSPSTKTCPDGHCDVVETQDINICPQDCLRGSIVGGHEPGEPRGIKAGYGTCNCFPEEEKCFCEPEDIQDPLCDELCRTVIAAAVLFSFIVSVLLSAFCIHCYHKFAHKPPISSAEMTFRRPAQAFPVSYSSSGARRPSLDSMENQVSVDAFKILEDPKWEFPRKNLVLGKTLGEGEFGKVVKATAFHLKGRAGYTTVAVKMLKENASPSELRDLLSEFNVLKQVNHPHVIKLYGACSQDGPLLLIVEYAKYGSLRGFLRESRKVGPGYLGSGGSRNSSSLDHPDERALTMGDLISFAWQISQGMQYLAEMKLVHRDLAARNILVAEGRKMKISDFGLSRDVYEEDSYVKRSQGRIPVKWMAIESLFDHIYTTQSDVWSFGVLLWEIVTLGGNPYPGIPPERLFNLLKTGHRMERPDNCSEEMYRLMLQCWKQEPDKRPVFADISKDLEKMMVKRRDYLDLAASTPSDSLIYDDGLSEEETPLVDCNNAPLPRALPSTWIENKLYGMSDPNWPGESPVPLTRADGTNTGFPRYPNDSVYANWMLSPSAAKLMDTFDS
T5 sequence (P41279 whole entry): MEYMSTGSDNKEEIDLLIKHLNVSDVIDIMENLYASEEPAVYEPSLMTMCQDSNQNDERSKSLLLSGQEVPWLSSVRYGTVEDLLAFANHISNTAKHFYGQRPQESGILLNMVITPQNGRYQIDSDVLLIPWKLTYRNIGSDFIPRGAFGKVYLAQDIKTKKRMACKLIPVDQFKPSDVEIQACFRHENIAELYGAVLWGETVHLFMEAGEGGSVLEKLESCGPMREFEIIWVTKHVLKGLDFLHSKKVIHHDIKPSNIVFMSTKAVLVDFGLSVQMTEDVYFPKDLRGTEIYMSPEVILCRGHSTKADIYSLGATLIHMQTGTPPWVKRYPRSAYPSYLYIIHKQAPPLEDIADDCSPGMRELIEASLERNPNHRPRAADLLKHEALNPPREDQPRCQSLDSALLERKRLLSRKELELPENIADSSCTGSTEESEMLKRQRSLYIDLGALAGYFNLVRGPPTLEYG
T2 sequence (Q8N5S9 whole entry): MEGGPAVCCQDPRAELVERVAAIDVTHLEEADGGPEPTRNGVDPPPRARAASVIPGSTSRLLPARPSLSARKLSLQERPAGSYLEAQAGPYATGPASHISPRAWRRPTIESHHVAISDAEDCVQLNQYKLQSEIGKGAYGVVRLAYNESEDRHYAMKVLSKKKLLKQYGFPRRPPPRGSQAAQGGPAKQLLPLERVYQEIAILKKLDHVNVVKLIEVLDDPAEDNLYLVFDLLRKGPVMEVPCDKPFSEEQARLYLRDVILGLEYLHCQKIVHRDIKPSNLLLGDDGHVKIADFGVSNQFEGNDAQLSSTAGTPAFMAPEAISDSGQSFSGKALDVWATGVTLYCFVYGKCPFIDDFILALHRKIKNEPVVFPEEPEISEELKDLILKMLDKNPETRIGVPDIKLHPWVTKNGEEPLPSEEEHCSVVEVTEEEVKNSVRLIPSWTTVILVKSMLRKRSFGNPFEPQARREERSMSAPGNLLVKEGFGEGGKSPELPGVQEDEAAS
T4 sequence (O60674 whole entry): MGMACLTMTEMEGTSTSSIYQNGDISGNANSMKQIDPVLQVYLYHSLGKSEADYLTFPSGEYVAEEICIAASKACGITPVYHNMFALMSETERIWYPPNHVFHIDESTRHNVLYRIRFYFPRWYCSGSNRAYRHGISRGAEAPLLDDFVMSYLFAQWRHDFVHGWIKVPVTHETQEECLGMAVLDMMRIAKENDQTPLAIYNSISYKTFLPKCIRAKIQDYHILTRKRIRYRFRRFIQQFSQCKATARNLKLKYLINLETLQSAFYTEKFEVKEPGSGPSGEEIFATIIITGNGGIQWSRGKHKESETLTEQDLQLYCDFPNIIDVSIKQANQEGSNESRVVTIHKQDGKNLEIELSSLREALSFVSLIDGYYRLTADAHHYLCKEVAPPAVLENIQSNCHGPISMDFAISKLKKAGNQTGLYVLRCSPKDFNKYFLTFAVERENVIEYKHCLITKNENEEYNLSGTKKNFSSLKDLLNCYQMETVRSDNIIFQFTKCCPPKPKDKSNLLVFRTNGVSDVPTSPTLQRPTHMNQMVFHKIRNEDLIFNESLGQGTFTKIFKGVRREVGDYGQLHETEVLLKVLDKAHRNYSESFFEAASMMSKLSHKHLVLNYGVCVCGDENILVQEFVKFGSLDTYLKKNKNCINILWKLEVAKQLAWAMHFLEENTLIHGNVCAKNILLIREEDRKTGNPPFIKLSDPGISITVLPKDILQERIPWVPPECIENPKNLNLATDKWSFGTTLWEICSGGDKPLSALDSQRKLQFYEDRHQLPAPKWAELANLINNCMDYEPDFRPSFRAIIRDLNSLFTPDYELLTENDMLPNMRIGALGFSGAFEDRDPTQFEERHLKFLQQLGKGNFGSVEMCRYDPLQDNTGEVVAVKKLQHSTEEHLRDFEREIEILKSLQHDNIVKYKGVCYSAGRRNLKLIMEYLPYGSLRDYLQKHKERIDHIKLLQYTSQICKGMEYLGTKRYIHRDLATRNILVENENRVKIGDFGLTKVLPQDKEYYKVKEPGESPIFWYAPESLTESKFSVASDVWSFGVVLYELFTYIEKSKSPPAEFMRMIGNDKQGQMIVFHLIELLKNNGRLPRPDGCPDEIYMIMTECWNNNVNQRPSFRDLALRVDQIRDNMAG
T9 sequence (Q15418 whole entry): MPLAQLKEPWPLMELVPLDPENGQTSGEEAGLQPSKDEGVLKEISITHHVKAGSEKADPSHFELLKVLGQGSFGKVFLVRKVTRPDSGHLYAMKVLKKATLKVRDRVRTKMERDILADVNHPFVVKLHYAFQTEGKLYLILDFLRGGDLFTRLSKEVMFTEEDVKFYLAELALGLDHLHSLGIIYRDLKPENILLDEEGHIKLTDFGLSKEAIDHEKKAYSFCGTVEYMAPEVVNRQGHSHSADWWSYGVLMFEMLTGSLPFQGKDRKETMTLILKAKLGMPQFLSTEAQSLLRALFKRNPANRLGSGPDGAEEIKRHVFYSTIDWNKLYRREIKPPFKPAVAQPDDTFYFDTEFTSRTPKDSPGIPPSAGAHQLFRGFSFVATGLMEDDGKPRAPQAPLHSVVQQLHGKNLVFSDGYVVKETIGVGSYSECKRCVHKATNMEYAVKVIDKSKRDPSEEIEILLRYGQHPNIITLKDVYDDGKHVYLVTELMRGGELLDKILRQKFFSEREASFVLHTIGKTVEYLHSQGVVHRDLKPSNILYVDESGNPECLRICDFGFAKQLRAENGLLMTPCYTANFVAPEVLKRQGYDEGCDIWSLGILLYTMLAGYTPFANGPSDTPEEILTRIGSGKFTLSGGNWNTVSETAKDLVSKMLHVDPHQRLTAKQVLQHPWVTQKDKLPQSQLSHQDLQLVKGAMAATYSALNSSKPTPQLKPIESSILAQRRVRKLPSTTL
T7 sequence (P05771 1-673 isoform P05771-2): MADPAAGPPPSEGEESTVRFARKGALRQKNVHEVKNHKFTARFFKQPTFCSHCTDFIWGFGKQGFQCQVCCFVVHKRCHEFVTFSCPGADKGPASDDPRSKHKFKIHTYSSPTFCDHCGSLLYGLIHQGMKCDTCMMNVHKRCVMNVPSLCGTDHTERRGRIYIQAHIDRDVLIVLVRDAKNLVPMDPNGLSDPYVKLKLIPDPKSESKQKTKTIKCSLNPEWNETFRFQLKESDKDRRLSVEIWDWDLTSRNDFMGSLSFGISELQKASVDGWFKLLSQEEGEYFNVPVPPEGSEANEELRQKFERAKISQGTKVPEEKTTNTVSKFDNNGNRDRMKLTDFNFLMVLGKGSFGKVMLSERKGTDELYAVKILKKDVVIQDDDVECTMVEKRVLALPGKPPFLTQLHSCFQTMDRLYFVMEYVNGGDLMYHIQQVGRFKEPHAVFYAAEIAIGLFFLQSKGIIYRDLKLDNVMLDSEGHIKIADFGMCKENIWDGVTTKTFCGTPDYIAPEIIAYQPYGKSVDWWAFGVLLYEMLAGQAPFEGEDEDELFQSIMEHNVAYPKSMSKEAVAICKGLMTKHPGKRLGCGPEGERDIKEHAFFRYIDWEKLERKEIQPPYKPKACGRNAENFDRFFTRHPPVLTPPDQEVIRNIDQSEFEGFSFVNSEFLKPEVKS

| Structure (SMILES) | inhibition at 0.1 µM (ACVR1B) [%] | inhibition at 0.1 µM (CAMKK1) [%] | inhibition at 0.1 µM (DDR2) [%] | inhibition at 0.1 µM (JAK2) [%] | inhibition at 0.1 µM (MAP3K8) [%] | inhibition at 0.1 µM (NUAK1) [%] | inhibition at 0.1 µM (PRKCB1_II) [%] | inhibition at 0.1 µM (RET) [%] | inhibition at 0.1 µM (RPS6KA1) [%] |
| --- | --- | --- | --- | --- | --- | --- | --- | --- | --- |
| CN1CCC(=O)NCCNc2ccn3ncc(c3n2)-c2cccc(c2)C1 [OD29] | 5.71 | -29.5 | 12.9 | 14.4 | -5.03 | 5.32 | 3.7 | 27.1 | 5.09 |
| CN1CCc2cccc(c2)Nc2nccc(n2)N2CCCc3cc(ccc32)C1 [OD16] | 7.78 | -1.72 | 33.5 | 50.2 | -16.9 | 74.3 | 15.9 | -29.1 | 17 |
| c1ccc2c(-c3cnn4cc(-c5ccc(N6CCNCC6)cc5)cnc34)ccnc2c1 [LDN-193189, reference compound] | 23.9 | 0.77 | 10.1 | 5.83 | -10.3 | -20.2 | 1.8 | 10.8 | -10.4 |

Source: paper PMC8231556, “Inhibiting Endothelial Cell Function in Normal and Tumor Angiogenesis Using BMP Type I Receptor Macrocyclic Kinase Inhibitors” (Cancers, 2021)
